The text below walks through data of ChEMBL document CHEMBL1201862, “PubChem BioAssay data set” (2004).

Molecules are shown by their SMILES. Activity calls are given as the source filed them.

For one test, the target named is T1, Protein skinhead-1 (Caenorhabditis elegans, UniProt P34707).
T1 sequence (P34707 whole entry): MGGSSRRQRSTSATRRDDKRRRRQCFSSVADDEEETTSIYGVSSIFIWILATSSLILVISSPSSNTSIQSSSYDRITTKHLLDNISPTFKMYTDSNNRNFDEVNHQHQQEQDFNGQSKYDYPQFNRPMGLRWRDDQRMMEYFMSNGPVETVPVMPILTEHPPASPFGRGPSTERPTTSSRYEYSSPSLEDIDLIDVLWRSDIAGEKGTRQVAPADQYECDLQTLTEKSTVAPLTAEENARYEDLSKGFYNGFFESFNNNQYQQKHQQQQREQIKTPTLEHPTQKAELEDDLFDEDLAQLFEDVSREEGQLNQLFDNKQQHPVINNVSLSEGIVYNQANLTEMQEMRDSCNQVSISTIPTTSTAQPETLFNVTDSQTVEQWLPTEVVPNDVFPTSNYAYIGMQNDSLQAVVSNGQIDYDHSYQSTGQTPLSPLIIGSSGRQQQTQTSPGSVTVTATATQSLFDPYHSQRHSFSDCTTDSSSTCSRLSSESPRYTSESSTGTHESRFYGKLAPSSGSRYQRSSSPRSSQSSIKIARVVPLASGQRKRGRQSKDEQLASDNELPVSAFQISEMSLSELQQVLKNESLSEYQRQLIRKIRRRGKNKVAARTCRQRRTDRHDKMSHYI
The format is functional.

Test [1] addresses T2, Rac GTPase-activating protein 1 (Homo sapiens, UniProt Q9H0H5).
T2 sequence (Q9H0H5 whole entry): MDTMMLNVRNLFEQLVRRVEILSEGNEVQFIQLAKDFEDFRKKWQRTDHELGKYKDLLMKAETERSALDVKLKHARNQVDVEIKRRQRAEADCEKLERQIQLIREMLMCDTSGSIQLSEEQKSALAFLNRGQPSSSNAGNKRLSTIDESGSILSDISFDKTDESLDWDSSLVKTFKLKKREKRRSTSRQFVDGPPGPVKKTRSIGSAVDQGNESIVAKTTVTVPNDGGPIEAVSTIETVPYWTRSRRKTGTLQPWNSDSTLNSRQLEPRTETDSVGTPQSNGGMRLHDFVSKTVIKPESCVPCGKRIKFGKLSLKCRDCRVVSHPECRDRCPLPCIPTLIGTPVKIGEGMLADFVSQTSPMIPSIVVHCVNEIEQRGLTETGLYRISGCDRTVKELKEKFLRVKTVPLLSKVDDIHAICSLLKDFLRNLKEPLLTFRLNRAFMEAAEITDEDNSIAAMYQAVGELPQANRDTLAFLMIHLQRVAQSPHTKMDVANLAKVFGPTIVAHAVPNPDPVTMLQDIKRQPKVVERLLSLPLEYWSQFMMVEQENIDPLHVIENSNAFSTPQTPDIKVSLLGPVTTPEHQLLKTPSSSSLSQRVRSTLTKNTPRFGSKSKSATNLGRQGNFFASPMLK
Put plainly: MgcRacGAP GTPase-activating activity inhibitors, confirmation, biochemical, ADP Hunter fluorescence, primary and confirmatory (AID 624330). Type of test: functional.

The nature of test [2]: microbe, parasite or virus in culture. Type of test: functional. The note with it: Mycobacterium tuberculosis.
The nature of test [3]: HEp-2 cell cytotoxicity, dose response, cytotoxicity control for RSV inhibitor project, HTS (AID 2410). The note with it: human respiratory syncytial virus. The format is functional.
Test [4] in a line: Luminescence Cell-Based Dose Retest to Confirm Inhibitors of Cancer Stem Cells. [Related pubchem assays (depositor defined):AID2717, AID2721]. Type of test: functional. The note with it: Homo sapiens.
Test [5] deals with T3, Polyadenylate-binding protein 1 (Homo sapiens, UniProt P11940). Put plainly: PABP1 MLLE–PAM2 interaction inhibitors, dose response, miRNA deadenylation inhibitor project, biochemical, fluorescence polarization, Cy5-PAM2 peptide, secondary (AID 602260). Type of test: functional. The note with it: read-out: IC50_Mean. In general terms: Polarisation of emitted light reports the rotation of a fluorescent probe.

The target of test [6] is T3, Polyadenylate-binding protein 1. Briefly: PABP1 MLLE–PAM2 binding inhibitor potency, dose response, biochemical, fluorescence polarization, FITC-PAM2 peptide (AID 602259). Type of test: functional. The note with it: read-out: IC50_Mean.
In the next test the target is Paired box protein Pax-8 (Homo sapiens, UniProt Q06710). Put plainly: inhibitors of PAX8-driven TPO luciferase reporter, dose response, RMG-I cells, cherry-pick (AID 687027).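 Note: luciferase reporter driven by Pax8 target thyroperoxidase promoter measured by SteadyGlo luminescence.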 Type of test: functional, cell-based. Background: In a reporter assay the amount or activity of a reporter protein is the signal.
Test [7] has as its target T4, Heat shock factor protein 1 (Mus musculus, UniProt P38532).
T4 sequence (P38532 whole entry): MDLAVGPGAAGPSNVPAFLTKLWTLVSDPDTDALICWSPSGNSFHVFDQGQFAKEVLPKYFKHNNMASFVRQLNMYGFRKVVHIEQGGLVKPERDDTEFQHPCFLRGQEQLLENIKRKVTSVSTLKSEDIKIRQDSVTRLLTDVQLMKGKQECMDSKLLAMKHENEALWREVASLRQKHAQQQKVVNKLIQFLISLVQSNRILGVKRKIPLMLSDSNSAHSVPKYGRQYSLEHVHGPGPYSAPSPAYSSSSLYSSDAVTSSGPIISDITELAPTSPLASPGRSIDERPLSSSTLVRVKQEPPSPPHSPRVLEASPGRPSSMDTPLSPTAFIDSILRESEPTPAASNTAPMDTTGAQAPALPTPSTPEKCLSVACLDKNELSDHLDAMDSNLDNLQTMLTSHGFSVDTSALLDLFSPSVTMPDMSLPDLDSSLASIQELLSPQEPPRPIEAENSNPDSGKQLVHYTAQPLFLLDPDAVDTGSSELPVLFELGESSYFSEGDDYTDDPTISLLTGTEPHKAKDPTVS
Put plainly: inhibition of MG132-induced HSE-luciferase signal, confirmation, cell-based, NIH3T3, luminescence, dose retest (AID 2382).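 Note: NIH3T3 fibroblasts with HSF1-driven luciferase reporter stressed by proteasome inhibitor MG132; luminescence from HSF1-driven luciferase expression after 8 hours of MG132 stress.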 Type of test: functional.

A short description of test [8]: cytotoxicity in HEK-293T cells, dose response, cytotoxicity control for BCR NF-kB inhibitor project, luminescence, B-cell screen hits (AID 489021).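 Note: HEK-293T cells carrying an NF-kB luciferase reporter; cells exposed to compound for about 14 hours before viability readout.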 Type of test: functional, cell-based.
The nature of test [9]: growth suppression of PTEN-null colon cells, dose response, cell-based, HCT116 PTEN knockout (AID 1047).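 Note: HCT116 colon tumor cells with PTEN knocked out; cells exposed to compound for 60 hours before readout; potency for loss of cell viability measured by luminescence.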 Type of test: functional.
The nature of test [10]: growth suppression of beta-catenin-knockout colon cells, dose response, cell-based, HCT116, human colon tumor (AID 1045).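 Note: HCT116 colon tumor cells with beta catenin knocked out; cells exposed to compound for 60 hours.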 Type of test: functional.
In another test the target is T5, Cytochrome P450 1A2 (Homo sapiens, UniProt P05177).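 Note: PubChem cytochrome P450 panel assay, CYP1A2 panel member.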
T5 sequence (P05177 whole entry): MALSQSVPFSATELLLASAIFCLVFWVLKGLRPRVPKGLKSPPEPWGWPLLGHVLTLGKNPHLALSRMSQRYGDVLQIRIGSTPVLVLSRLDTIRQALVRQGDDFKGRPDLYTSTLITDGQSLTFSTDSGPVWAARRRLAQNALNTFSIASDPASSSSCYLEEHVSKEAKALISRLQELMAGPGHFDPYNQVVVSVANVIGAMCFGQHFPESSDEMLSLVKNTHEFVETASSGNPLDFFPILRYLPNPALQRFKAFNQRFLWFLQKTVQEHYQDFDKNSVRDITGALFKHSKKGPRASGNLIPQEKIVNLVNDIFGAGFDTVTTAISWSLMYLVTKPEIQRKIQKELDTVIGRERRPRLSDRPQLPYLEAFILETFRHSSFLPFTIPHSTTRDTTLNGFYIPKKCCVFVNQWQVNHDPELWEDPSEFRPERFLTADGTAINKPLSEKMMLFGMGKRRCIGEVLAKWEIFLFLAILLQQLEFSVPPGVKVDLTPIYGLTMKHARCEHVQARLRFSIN

For the next test, the target named is Cytochrome P450 2C9 (Homo sapiens, UniProt P11712).
Another test addresses Cytochrome P450 2C19 (Homo sapiens, UniProt P33261). Briefly: Cytochrome panel assay with activity outcomes. Panel member name: p450-cyp2c19 Compounds with AC50 equal or less than 10 uM are considered active. Type of test: functional. As to conditions: read-out: AC50.
Test [11] deals with FAD-linked sulfhydryl oxidase ALR (Homo sapiens, UniProt P55789). Briefly: inhibitors of human ALR sulfhydryl oxidase, dose response, biochemical, H2O2 detection, luminescence, cherry-pick (AID 493248).
Sequence of FAD-linked sulfhydryl oxidase ALR (P55789 whole entry): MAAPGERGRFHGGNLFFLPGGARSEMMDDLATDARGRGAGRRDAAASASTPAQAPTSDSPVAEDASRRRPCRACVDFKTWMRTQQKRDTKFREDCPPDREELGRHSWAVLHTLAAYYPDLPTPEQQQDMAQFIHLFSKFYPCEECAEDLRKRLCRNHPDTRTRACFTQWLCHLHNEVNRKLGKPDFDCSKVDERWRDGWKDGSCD

T3 sequence (P11940 whole entry): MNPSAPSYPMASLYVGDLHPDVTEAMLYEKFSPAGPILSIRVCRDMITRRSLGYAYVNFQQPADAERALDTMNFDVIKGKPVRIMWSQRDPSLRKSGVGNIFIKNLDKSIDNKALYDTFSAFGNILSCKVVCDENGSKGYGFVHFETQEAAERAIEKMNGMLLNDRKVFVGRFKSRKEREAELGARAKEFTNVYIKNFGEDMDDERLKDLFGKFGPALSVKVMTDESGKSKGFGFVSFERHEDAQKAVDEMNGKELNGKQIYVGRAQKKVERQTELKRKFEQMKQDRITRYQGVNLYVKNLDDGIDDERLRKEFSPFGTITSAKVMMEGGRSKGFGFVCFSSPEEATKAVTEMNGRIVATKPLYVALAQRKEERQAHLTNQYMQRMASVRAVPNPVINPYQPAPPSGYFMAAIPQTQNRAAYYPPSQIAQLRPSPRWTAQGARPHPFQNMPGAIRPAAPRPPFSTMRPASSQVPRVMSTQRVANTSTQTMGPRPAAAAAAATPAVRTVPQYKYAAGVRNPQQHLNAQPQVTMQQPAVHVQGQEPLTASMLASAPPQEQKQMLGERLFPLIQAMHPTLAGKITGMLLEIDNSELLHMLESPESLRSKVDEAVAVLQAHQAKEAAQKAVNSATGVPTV
Sequence of Paired box protein Pax-8 (Q06710 whole entry): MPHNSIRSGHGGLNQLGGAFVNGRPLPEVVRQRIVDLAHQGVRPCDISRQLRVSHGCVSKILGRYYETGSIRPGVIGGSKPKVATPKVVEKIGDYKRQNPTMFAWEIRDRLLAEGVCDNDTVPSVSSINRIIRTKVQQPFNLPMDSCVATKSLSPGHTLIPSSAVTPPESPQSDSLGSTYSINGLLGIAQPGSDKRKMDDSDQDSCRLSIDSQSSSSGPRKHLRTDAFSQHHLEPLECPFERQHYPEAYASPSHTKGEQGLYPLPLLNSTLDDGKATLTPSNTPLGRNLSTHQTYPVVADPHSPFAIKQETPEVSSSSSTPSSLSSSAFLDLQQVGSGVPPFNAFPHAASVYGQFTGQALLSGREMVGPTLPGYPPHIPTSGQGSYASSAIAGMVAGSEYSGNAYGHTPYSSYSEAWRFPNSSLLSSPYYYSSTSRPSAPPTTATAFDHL
Sequence of Cytochrome P450 2C19 (P33261 whole entry): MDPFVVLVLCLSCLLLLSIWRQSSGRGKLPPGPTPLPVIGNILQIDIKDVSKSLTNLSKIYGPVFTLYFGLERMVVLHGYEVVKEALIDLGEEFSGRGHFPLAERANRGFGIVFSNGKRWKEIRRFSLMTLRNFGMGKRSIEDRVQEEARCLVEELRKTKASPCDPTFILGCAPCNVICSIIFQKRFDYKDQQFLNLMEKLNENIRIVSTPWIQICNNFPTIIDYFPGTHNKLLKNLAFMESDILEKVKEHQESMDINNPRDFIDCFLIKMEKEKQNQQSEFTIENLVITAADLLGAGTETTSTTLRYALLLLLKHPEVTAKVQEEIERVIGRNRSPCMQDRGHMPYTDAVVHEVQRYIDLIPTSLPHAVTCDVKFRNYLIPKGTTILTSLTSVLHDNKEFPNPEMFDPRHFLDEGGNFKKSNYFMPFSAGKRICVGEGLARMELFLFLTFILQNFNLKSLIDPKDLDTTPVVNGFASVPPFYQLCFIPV
Sequence of Cytochrome P450 2C9 (P11712 whole entry): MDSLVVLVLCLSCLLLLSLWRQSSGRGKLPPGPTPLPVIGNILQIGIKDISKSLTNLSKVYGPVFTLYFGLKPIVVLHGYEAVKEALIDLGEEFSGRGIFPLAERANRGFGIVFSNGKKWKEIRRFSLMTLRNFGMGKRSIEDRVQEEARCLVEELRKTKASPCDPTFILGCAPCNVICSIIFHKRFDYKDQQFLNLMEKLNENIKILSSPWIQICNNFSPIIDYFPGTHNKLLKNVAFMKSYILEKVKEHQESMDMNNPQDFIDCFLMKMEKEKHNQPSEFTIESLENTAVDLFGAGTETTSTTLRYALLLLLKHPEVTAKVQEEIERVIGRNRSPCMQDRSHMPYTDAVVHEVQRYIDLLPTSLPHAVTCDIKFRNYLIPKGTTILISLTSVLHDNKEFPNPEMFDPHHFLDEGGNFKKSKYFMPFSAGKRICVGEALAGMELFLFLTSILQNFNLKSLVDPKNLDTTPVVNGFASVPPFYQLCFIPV

On to `CC/C(=C\c1ccc(N(C)C)cc1)c1ccncc1`, for which the IC50 at Protein skinhead-1 is > 100 µM (inactive); in test [1], 30.2 µM (active).

For `CN1C(=S)SC(N(O)C(=O)Nc2ccc(Cl)c(Cl)c2)C1(C)C` (stereo not given), the CC50 in test [2] is 38.9 µM (active).

For `O=C(Nc1ccc2c(c1)Cc1ccccc1-2)c1cccnc1`, the CC50 in test [3] is 20.3 µM (active).

For the compound `COc1ccc(Br)cc1C(=O)NC(=S)Nc1cc(-c2nc3ccccc3[nH]2)ccc1C`, in [4], the AC50 is > 195 µM (inactive). For the same compound, the IC50 in [5] and in test [6] was > 66 µM (inactive) in each case. Turning to `O=C(CN1C(=O)c2ccccc2S1(=O)=O)c1ccc(O)c(O)c1`, the IC50 in [1] is 175 µM (active). As for `Cc1oc(C)c2c(=O)ccc3c(c12)OC(N)=C(C#N)C3c1ccccc1Cl` (stereo not given), the CC50 in [2] is > 40 µM (active). `Cc1ccccc1SCC(=O)OCC(=O)Nc1ccc(N(C)C)cc1`: in test [1], the IC50 is 66.7 µM (active).

For `C[C@@H]1CN([C@@H](C)CO)C(=O)c2cc(NC(=O)Nc3ccc(C(F)(F)F)cc3)ccc2O[C@@H](C)CCCCO[C@@H]1CN(C)CC1CCCCC1`, the AC50 at Paired box protein Pax-8 is 3.9 µM (active).

In the case of `CCOC(=O)C1SC2(C(F)(F)F)CC1(O)c1c(C)cc(C)nc1O2` (stereo not given), the IC50 in [5] and in test [6] was > 66 µM (inactive) throughout. On to `CC(C)c1ccccc1NC(=O)c1cccc(NC(=O)c2ccccc2)c1`, for which the CC50 in [3] was 20.3 µM (active). In the case of `C=CCN1C(=O)/C(=C\c2ccc(Cl)cc2)N=C1SCC(=O)NC1CCCCC1`, the IC50 in [5] and in test [6] was > 66 µM (inactive) each time. For `COc1ccc(CNc2ccc(S(N)(=O)=O)cc2)cc1`, the IC50 in [5] and in [6] was > 66 µM (inactive) each time.

In the case of `Cc1onc(-c2ccccc2Cl)c1C(=O)Nc1sc2c(c1C(N)=O)CCC(C)C2` (stereo not given), the CC50 in [3] is 19.3 µM (active). For the compound `COc1ccc(N2CCC(CN=C(S)Nc3cccc(C)c3)C2)cc1` (stereo not given), the IC50 in test [1] is 39.3 µM (active).

With `CC(=O)C[C@H]1c2cc(F)ccc2S(=O)(=O)N1c1ccc(N(C)C)cc1`, the EC50 in test [7] was 33.8 µM (active). Moreover, the IC50 in [1] is 119 µM (active). On to `COc1cccc(NC(=O)CSC(N)=O)c1`, for which the IC50 in test [5] and in test [6] was > 66 µM (inactive) throughout. With `O=C(O)CCC(C(=O)O)N1C(=O)/C(=C2/C(=O)Nc3ccccc32)SC1=S` (stereo not given), the IC50 in test [5] and in [6] was > 66 µM (inactive) throughout. As for `C[C@H](CO)N1C[C@H](C)[C@@H](CN(C)C(=O)NC2CCCCC2)Oc2cc(C#Cc3ccc(F)cc3)ccc2S1(=O)=O`, the AC50 on Paired box protein Pax-8 is 9.52 µM (active).

Regarding `CC[C@H](C)[C@@H]1O[C@@]2(C=CC1C)CC1C[C@@H](CC=C(C)C(O[C@H]3CC(OC)C(O[C@H]4CC(OC)C(O)C(C)O4)C(C)O3)C(C)C=CC=C3CO[C@@H]4C(O)C(C)=C[C@@H](C(=O)O1)[C@]34O)O2` (stereo not given in full), the CC50 in test [2] is 15.9 µM (active). In the case of `Cc1c(NC(=O)/C=C/c2cn(-c3ccccc3)nc2-c2ccccc2)c(=O)n(-c2ccccc2)n1C`, the IC50 in test [8] was > 80 µM (inactive).

As for `CCc1cccc2c(C(=O)CCl)c[nH]c12`, the CC50 in [2] was 24.4 µM (active). Regarding `COc1ccc(CN2CCCN(C)CC2)c(OC)c1C`, the IC50 in test [1] was 124 µM (active). Consider `COC(=O)c1cc(=O)n(Cc2ccc3c(c2)OCO3)/c(=N/c2ccc(F)cc2)s1`, for which the CC50 in test [3] is 33.2 µM (active). Also, the EC50 in test [9] is 27.9 µM (active); in test [10] it was 26.2 µM (active). On to `Nc1ccc(Nc2nc(-c3ccncc3)cs2)cc1`, for which the IC50 in [1] is 9.36 µM (active). Regarding `FC(F)(F)c1cccc(NC(S)=NN=C(S)NCc2ccccc2)c1`, the IC50 in [5] and in [6] was > 66 µM (inactive) each time. On to `CC1CCN(C(=S)c2ccc(O)cc2)CC1`, for which the IC50 in test [5] and in [6] was > 66 µM (inactive) each time. Also, the AC50 was 14.1 µM (inconclusive) at Cytochrome P450 1A2 and 39.8 µM (inconclusive) on Cytochrome P450 2C9. For the compound `COCCNCCOCCOc1ccc(Cl)c(C)c1`, the IC50 in test [1] is 138 µM (active). In the case of `CC(C)c1ccc(/C=N/N2CCN(c3ccccn3)CC2)cc1`, the CC50 in [3] is 35.7 µM (active).

On to `CCOc1ccc(N(C(=O)/C=C/C(=O)Nc2cc(C)on2)C(C(=O)NC2CCCC2)c2ccccc2C)cc1` (stereo not given), for which the CC50 in test [2] is 20.2 µM (active). The AC50 at Cytochrome P450 2C19 is 31.6 µM (inconclusive). Turning to `CC1CCN(CCCNC(=O)COc2cc(=O)n(C)c3ccccc23)CC1`, the IC50 in [8] is > 80 µM (inactive).

`COC(=O)C1CCN(C(=O)COC(=O)/C=C/c2ccc(O)c(OC)c2)CC1`: the IC50 in [1] is 49.7 µM (active). Turning to `COc1ccc(OC)c(S(=O)(=O)Nc2ccc(-c3ccc4nnc(C)n4n3)cc2)c1`, the IC50 in test [8] is > 80 µM (inactive). For `O=C(CN1CCN(c2ccc(O)cc2)CC1)N(C1CC1)C1CCS(=O)(=O)C1` (stereo not given), the AC50 in test [11] was 0.238 µM (active). Moreover, the IC50 in test [1] is 80.2 µM (active).

The term AC50 denotes the midpoint of the concentration-response curve, whichever way the signal moves. The term EC50 denotes the concentration needed to bring the measured effect to its halfway point.
